Counter-ions that a name gives are not always drawn.
How the values were obtained:
[1] = Color drift of paint dosed with copper-containing material and copper-coordinating additive (CIE a* before/after peroxide); format: physicochemical; details: for a* drift (total drift in color, gap between paint color before and after peroxide testing) / a* endpoint: FIG. 1, Control B paint, Cu:phosphate dibasic 1:0.3 and 1:0.6, other additives 1:0.5 and 1:1; for a* endpoint: after peroxide; for drift in color: FIG. 3, additive neutralized to pH 7 before copper-containing material, 1:1.5 and 1:3 molar ratios; for color drift: 1:1 and 1:3 molar ratios; for color drift / color shift to endpoint / color drift: additive neutralized to pH 7; for color shift to endpoint / color drift: FIG. 10
[2] = tested on: bacteria; test: Antimicrobial efficacy (logarithmic reduction) of paint samples with copper-containing material and copper-coordinating additive; format: cell-based; details: FIG. 12; 50 g of 1:3 molar ratio mixture per gallon of control paint
Excerpt: As used herein, the term “logarithmic reduction” means the negative value of log (Ca/C0), where Ca refers to the colony form unit (“CFU”) number of the antimicrobial surface and C0 refers to the CFU of the control surface that is not an antimicrobial surface. As an example, a 3 logarithmic reduction equals about 99.9% of the microbes killed and a logarithmic reduction of 5 equals about 99.999% of microbes killed. The logarithmic reduction value may be measured according to the ASTM D2574-16 (2016) “Standard Test Method for Resistance of Emulsion Paints in the Container to Attack by Microorganisms.”
The effectiveness of a composition of the present disclosure as a biocidal composition may be measured as a function of the composition's logarithmic reduction. The composition's logarithmic reduction value may be relevant to its ability to kill a wide variety of biological organisms to which the composition is exposed, but may also allow the copper-containing material to act as a preservative for the composition during storage (e.g., in a container such as, but not limited to a tank, a can, a bucket, a drum, a bottle, or a tube). […]

[3] = FIG. 5, Control N paint, 50 g/gallon

Row | Molecule | a* drift (total drift in color, gap between paint color before and after peroxide testing) ([1]; 50 g/gallon) | a* endpoint ([1]; 50 g/gallon) | color shift to endpoint / color drift ([1]; 1:3 molar ratio, 50 g/gallon) | further results
1 | CCCCC(CC)COP(=O)(O)O (centres unmarked) [2EHP, 2-ethylhexylphosphate] | −0.25 to −1 | −0.5 to −1 |  | drift in color ([1]; 50 g/gallon): reduced significantly; color drift [1, 3]: did not minimize drift; color drift, 1:3 molar ratio relative to 1:1 molar ratio [1, 3]: some reduction in drift
2 | CCON [ethoxyamine hydrochloride] |  |  | accelerated color shift to endpoint, minimizing color drift | impact on antimicrobial efficacy [2]: minimal impact on antimicrobial efficacy
3 | Cl.NO [hydroxylamine hydrochloride] | ~0 | did not change the endpoint a* |  | drift in color ([1]; 50 g/gallon): reduced significantly; color drift [1, 3]: minimized color drift by accelerating to endpoint quickly; effect on a* / color endpoint (summary of data) ([1]; control paint samples, summary): accelerated color endpoints and reduced color shifts by starting with more negative a* values
4 | COP(=O)(O)O [methyl phosphate] |  |  | accelerated color shift to endpoint, minimizing color drift | impact on antimicrobial efficacy [2]: minimal impact on antimicrobial efficacy
5 | O=P(O)(O)Oc1ccccc1 [phenyl phosphate] |  |  |  | color shift to endpoint ([1]; FIG. 13, 1:3 molar ratio, 50 g/gallon): all copper-coordinating additives except for phenyl phosphate accelerated color shift to endpoint
6 | COP(=O)(OC)OC [trimethyl phosphate] |  |  | accelerated color shift to endpoint, minimizing color drift | 
7 | NC(N)=O [urea] | ~−1 | did not change the endpoint a* |  | 
8 | phosphate dibasic | −1.75 | ~−1.5 |  | 

From patent US20260114452A1, “ADDITIVES FOR COLOR DRIFT REDUCTION IN COPPER-BASED ANTIMICROBIAL POLYMERIC FORMULATIONS” (CORNING INCORPORATED, priority 2021, published 2026)
